Measurements published in the supplement of paper PMC6045584.
± gives the standard deviation of the averaged measurements.

How the values were obtained:
[1] = compound: Oc1nc(-c2ccc(C(F)(F)F)cc2)nc2c1CSCC2 [XAV-939]; assay: surviving fraction relative to DMSO-only wells; higher = less growth inhibition; conditions: exposure time: 5 days
Procedure, shortened: (§1)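 Surviving fraction was calculated by normalising CellTiter-Glo luminescence to the median of DMSO-only wells. Tumour cell lines in log phase were seeded in 384-well plates at 250–500 cells per well, and 24 hours later were exposed continuously for five days to inhibitors at 0.5, 1, 5, 10, 50, 100, 500 and 1000 nM.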

[2] = compound: NS(=O)(=O)OC[C@@H]1C[C@@H](n2ccc3c(N[C@H]4CCc5ccccc54)ncnc32)C[C@@H]1O [MLN-4924]; assay: as above; conditions: exposure time: 5 days
Procedure, shortened: as §1

Test System	surviving fraction ([1]; 0.5 nM)	surviving fraction ([1]; 1 nM)	surviving fraction ([1]; 5 nM)	surviving fraction ([1]; 10 nM)	surviving fraction ([1]; 50 nM)	surviving fraction ([1]; 100 nM)	surviving fraction ([1]; 500 nM)	surviving fraction ([1]; 1000 nM)	surviving fraction ([2]; 0.5 nM)	surviving fraction ([2]; 1 nM)	surviving fraction ([2]; 5 nM)	surviving fraction ([2]; 10 nM)	surviving fraction ([2]; 50 nM)	surviving fraction ([2]; 100 nM)	surviving fraction ([2]; 500 nM)	surviving fraction ([2]; 1000 nM)
MDAMB231 BREAST	0.957 ± 0.013	1.01 ± 0.028	0.982 ± 0.021	0.983 ± 0.018	0.917 ± 0.016	0.866 ± 0.025	0.656 ± 0.015	0.586 ± 0.026	0.9815 ± 0.006	0.978 ± 0.026	0.971 ± 0.025	0.933 ± 0.024	0.676 ± 0.0082	0.62 ± 0.035	0.243 ± 0.0094	0.175 ± 0.0081
CAL72 BONE	1.07 ± 0.023	1.05 ± 0.013	0.999 ± 0.015	0.976 ± 0.023	0.944 ± 0.012	0.957 ± 0.029	0.916 ± 0.038	0.9 ± 0.025	1.02 ± 0.11	0.996 ± 0.12	1.02 ± 0.1	1.04 ± 0.068	1.1 ± 0.031	0.933 ± 0.085	0.299 ± 0.063	0.154 ± 0.042
VP229 BREAST	1.3 ± 0.093	1.34 ± 0.056	1.37 ± 0.14	1.23 ± 0.045	1.3 ± 0.075	1.41 ± 0.22	1.33 ± 0.26	1.3 ± 0.075	1.07 ± 0.16	1.08 ± 0.19	1.17 ± 0.028	1.14 ± 0.22	1.04 ± 0.033	0.891 ± 0.12	0.233 ± 0.082	0.127 ± 0.022
CASKI CERVIX	0.918 ± 0.017	0.944 ± 0.037	0.975 ± 0.011	0.997 ± 0.013	1.03 ± 0.028	1.06 ± 0.03	0.935 ± 0.037	0.965 ± 0.051	0.955 ± 0.033	0.961 ± 0.028	1.04 ± 0.084	1.03 ± 0.082	0.507 ± 0.017	0.301 ± 0.016	0.168 ± 0.013	0.153 ± 0.0032
BT549 BREAST	1.16 ± 0.085	1.19 ± 0.079	1.03 ± 0.077	1.16 ± 0.082	1.18 ± 0.044	1.08 ± 0.091	0.884 ± 0.014	0.872 ± 0.091	1.05 ± 0.043	1 ± 0.19	1.02 ± 0.064	0.957 ± 0.052	0.732 ± 0.14	0.575 ± 0.062	0.194 ± 0.067	0.148 ± 0.046
MHM BONE	0.999 ± 0.011	1.02 ± 0.033	1.024 ± 0.009	1.03 ± 0.033	0.96 ± 0.081	1.04 ± 0.012	0.963 ± 0.005	0.949 ± 0.029	0.973 ± 0.011	0.995 ± 0.024	1.04 ± 0.035	1.09 ± 0.038	1.37 ± 0.02	1.36 ± 0.015	0.39 ± 0.042	0.286 ± 0.015
DU4475 BREAST	1.02 ± 0.28	0.857 ± 0.17	0.884 ± 0.18	1.05 ± 0.12	1.07 ± 0.17	1.16 ± 0.18	1.15 ± 0.33	1.1 ± 0.25	0.976 ± 0.098	1.02 ± 0.028	0.894 ± 0.049	0.683 ± 0.11	0.033 ± 0.001	0.0267 ± 0.0042	0.0323 ± 0.0011	0.0333 ± 0.0011
MDAMB468 BREAST	1.08 ± 0.041	1.04 ± 0.061	1.04 ± 0.039	1.08 ± 0.038	1.09 ± 0.014	1.05 ± 0.033	0.988 ± 0.072	0.964 ± 0.043	1.15 ± 0.068	1.09 ± 0.062	1.13 ± 0.1	1.04 ± 0.11	0.436 ± 0.0053	0.302 ± 0.05	0.18 ± 0.0087	0.178 ± 0.021
LNCAP PROSTATE	0.85 ± 0.076	0.83 ± 0.11	0.94 ± 0.058	0.921 ± 0.054	0.797 ± 0.071	0.936 ± 0.1	0.741 ± 0.12	0.713 ± 0.14	0.939 ± 0.1	1 ± 0.021	0.803 ± 0.092	0.496 ± 0.051	0.085 ± 0.014	0.026 ± 0.001	0.0227 ± 0.0011	0.024
SNU475 LIVER	0.936 ± 0.035	0.976 ± 0.033	0.891 ± 0.18	1.02 ± 0.018	0.952 ± 0.011	0.965 ± 0.033	0.713 ± 0.068	0.59 ± 0.027	0.976 ± 0.031	1.04 ± 0.031	1.04 ± 0.023	1.04 ± 0.062	1.12 ± 0.059	1.08 ± 0.046	0.663 ± 0.036	0.53 ± 0.012
